# Measured values taken from publication PMC5902452, “In silico optimization of a guava antimicrobial peptide enables combinatorial exploration for peptide design” (Nature Communications, 2018).
# Peptide text beside a SMILES is read from it.
# Legend:
# [1] = tested on: P. aeruginosa H1001 (fliC::luxCDABE); type: cell-based, Pseudomonas aeruginosa; details: SPOT-synthesized unpurified crude peptide (~70% purity); bioluminescent engineered P. aeruginosa; BM2 medium; 4 h, 37 °C; reduction of luminescence; 200 to 3 μg mL−1 tested
# Experimental: A peptide array composed of 20 peptides (15 guavanins, 4 Pg-AMP1 fragments, and magainin 2) was designed and synthesized by Kinexus Bioinformatics Corporation (Vancouver, BC). Peptides were produced in a standard mass of 80 μg by using cellulose support in SPOT technology. The crude synthetic peptides were obtained from cellulose membrane discs that had already been treated with ammonia gas to release the peptides from the membrane. Peptides were then dissolved overnight in distilled water and subsequently evaluated for their biological activities, as described below.
# The antimicrobial activity of the synthesized peptides was evaluated against an engineered luminescent P. aeruginosa H1001 (fliC::luxCDABE) strain in 96-well microplates. Aqueous solutions of peptides released from the cellulose spots were diluted twofold in BM2 medium [62 mM potassium phosphate buffer pH 7; 2 mM MgSO4; 10 μM FeSO4; 0.4% (wt/vol) glucose] down the eight wells of a 96-well plate, achieving a final volume of 25 μL in each well. Subsequently, 50 μL of overnight culture of P. aeruginosa H1001 (fliC::luxCDABE) were subcultured in 5 mL of fresh LB media and grown until they reached an OD600 of 0.4. This growing bacteria culture was then diluted 4:100 (v/v) into fresh BM2 media and 25 μL of this diluted bacterial culture was transferred to the microplate wells containing 25 μL of peptide solution. The final peptide concentrations tested ranged from 200 to 3 μg mL^−1. The plates were incubated for 4 h at 37 °C with constant shaking at 50 rpm. Luminescence was measured on a Tecan […]luor Plus Microplate Reader (Tecan US, Morrisville, NC). The antimicrobial activity was evaluated by the ability of the peptides to reduce the luminescence of P. aeruginosa-lux strain compared to untreated cells. The AMP magainin 2 and the carbapenem meropenem were used as positive controls and distilled water was used as a negative control.
# human erythrocytes = assay: Hemolytic assay; details: SPOT-synthesized crude peptides; human red blood cells in NaCl 0.85%, 1 h, 37 °C; hemoglobin release at 546 nm; highest concentration 200 μg mL−1; 100% of hemolysis was not observed
# Experimental: Fresh human venous blood was collected from volunteers in Vacutainer collection tubes containing sodium heparin as an anticoagulant (BD Biosciences, Franklin Lakes, NJ). The blood was centrifuged applying 151 × g force (1500 rpm) and the serum was removed and the blood cells were replaced and washed three times with the same volume of sterile NaCl 0.85% solution. Concentrated red blood cells were diluted tenfold in NaCl 0.85% solution and then exposed at twofold dilutions of peptides for 1 h at 37 °C, at identical concentrations used for antimicrobial assays, in the ratio of 1:1 (v/v), achieving a final volume of 100 μL. The assay was carried out in 96-well polypropylene microtiter plates. The positive control wells contained 1% of Triton X-100, representing 100% cell lysis, and negative control wells contained sterile saline. Hemoglobin release was monitored chromogenically at 546 nm using a microplate reader.
# E. coli ATCC 25922 [2] = assay: SYTOX green uptake assay (membrane permeabilization); type: cell-based, Escherichia coli; details: 5 µM, positive control
# Experimental: SG is impermeant to live cells and when the cell membrane is damaged, this dye penetrates into the cell and binds to intracellular DNA, due to its high-affinity to nucleic acids, leading to an increase in fluorescence. Exponentially growing bacteria (6 × 10^5 cfu mL^−1) were resuspended in PBS after centrifugation (1000 × g, 10 min, 4 °C) and washing steps. About 792 μL of the bacterial suspension was pre-incubated with 8 μL of 100 μM SG during 30 min at 37 °C in the dark. […] Results correspond to a representative experiment with negative (PBS) and positive (melittin) controls. Three independent experiments were performed.
# E. coli ATCC 25922 [3] = assay: Membrane polarization assay with DiSC3(5); type: cell-based, Escherichia coli; details: 5 µM, positive control
# Experimental: When the cytoplasmic membrane is intact, the fluorescent probe DiSC3(5) accumulates into the cytoplasmic membrane and then aggregates, causing self-quenching of the fluorescence. In the presence of a membrane-depolarizing agent, DiSC3(5) is released into the medium, leading to an increase in fluorescence that can be monitored over time[59]. Briefly, exponentially growing bacteria were centrifuged (1000 × g, 10 min, 4 °C), washed with PBS, and resuspended in the same buffer to an A630 of 0.1; then 700 µL of bacteria were pre-incubated with 1 µM DiSC3(5) in the dark during 10 min at 37 °C, and then 100 µL of 1 mM KCl were added in order to equilibrate the cytoplasmic and external K^+ concentrations. […] Three independent experiments were performed and results correspond to a representative experiment with negative (PBS) and positive (melittin) controls.
# [4] = tested on: P. aeruginosa strain PAO1; assay: Scarification skin infection mouse model; type: in vivo, female CD-1 mice
# Experimental: P. aeruginosa strain PAO1 was grown to an optical density at 600 nm (OD600) of 1 in tryptic soy broth medium. Subsequently cells were washed twice with sterile PBS, and resuspended to a final concentration of 5 × 10^7 CFU in 50 μL. To generate skin infection, female CD-1 mice (6 weeks old) were anesthetized with isoflurane and had their backs shaved. A superficial linear skin abrasion was made with a needle in order to damage the stratum corneum and upper layer of the epidermis. Five minutes after wounding, an aliquot of 50 μL containing 5 × 10^7 CFU of bacteria in PBS was inoculated over each defined area containing the scratch with a pipette tip. One day after the infection, peptides were administered to the infected area. Animals were euthanized and the area of scarified skin was excised 2 and 4 days post-infection, homogenized using a bead beater for 20 min (25 Hz), and serially diluted for CFU quantification. Two independent experiments were performed with four mice per group in each case. Statistical significance was assessed using a two-way ANOVA. Animals were maintained in accordance with the Guide for the Care and Use of Laboratory Animals in an AAALAC-accredited facility. All procedures were approved by the MIT’s Institutional Animal Care and Use Committee (IACUC), protocol number 1016-064-19.
# erythrocytes = details: cited from earlier work
Compound,MIC [1] [µg/mL],Hemolysis (human erythrocytes) [µg/mL],other results
CSCC[C@H](NC(=O)[C@H](Cc1ccc(O)cc1)NC(=O)[C@H](CCC(N)=O)NC(=O)[C@@H](N)CCCNC(=N)N)C(=O)N[C@@H](CCCNC(=N)N)C(=O)N[C@@H](Cc1ccc(O)cc1)C(=O)N[C@@H](CC(C)C)C(=O)N[C@@H](CCC(=O)O)C(=O)N[C@@H](CCC(N)=O)C(=O)N[C@@H](C)C(=O)N[C@@H](CCC(=O)O)C(=O)N[C@@H](CCCNC(=N)N)C(=O)N[C@@H](Cc1ccc(O)cc1)C(=O)N[C@H](C(=O)N[C@@H](CC(N)=O)C(=O)N[C@@H](CCCNC(=N)N)C(=O)N[C@@H](CC(N)=O)C(=O)N[C@@H](CC(C)C)C(=O)N[C@@H](CCCNC(=N)N)C(=O)N[C@@H](CCCNC(=N)N)C(N)=O)C(C)C [Guavanin 4] (H-RQYMRYLEQAERYVNRNLRR-NH2),100,> 200,
CC[C@H](C)[C@H](NC(=O)[C@H](C)NC(=O)[C@H](CCC(N)=O)NC(=O)[C@H](CCC(=O)O)NC(=O)[C@H](Cc1ccc(O)cc1)NC(=O)[C@H](CC(C)C)NC(=O)[C@H](CCC(=O)O)NC(=O)[C@H](CCSC)NC(=O)[C@H](CC(C)C)NC(=O)[C@H](CCCCN)NC(=O)[C@@H](N)CCCNC(=N)N)C(=O)N[C@@H](CCCNC(=N)N)C(=O)N[C@@H](Cc1ccc(O)cc1)C(=O)NCC(=O)N[C@@H](CCCCN)C(=O)N[C@@H](CCCNC(=N)N)C(=O)N[C@@H](CO)C(=O)N[C@@H](Cc1ccc(O)cc1)C(=O)N[C@@H](CCCNC(=N)N)C(=O)N[C@@H](CCCNC(=N)N)C(N)=O [Guavanin 12] (H-RKLMELYEQAIRYGKRSYRR-NH2),25,> 200,
melittin [reference compound],,,SYTOX Green influx (membrane permeabilization) (E. coli ATCC 25922 [2]): rapid and maximal SG fluorescence signal; DiSC3(5) fluorescence change (membrane potential) (E. coli ATCC 25922 [3]): rapid increase in the fluorescence signal
"Pg-AMP1: guava glycine-rich antimicrobial peptide, UniProt P86030, template of the guavanins (RESPSSRMECYEQAERYGYGGYGGGRYGGGYGSGRGQPVGQGVERSHDDNRNQPR; UniProt P86030 1-55, looked up)",,,"anti-infective activity ([4]; 6.25 μg mL−1, 4 days post-infection): no activity; effect on CFU counts / bacterial load (two-way ANOVA) ([4]; doses 6.25, 25 and 100 µg mL−1, 4 days post-infection, two experiments, four mice per group): significant reduction of bacterial load only at higher concentrations; dose at which activity is kept after 4 days ([4]; wound infection mouse model): 25 µg/mL; hemolytic activity (erythrocytes): hemolytic"
CC[C@H](C)[C@H](NC(=O)[C@H](CC(C)C)NC(=O)[C@H](CCC(=O)O)NC(=O)[C@H](CCSC)NC(=O)[C@H](CC(C)C)NC(=O)[C@H](CCC(N)=O)NC(=O)[C@@H](N)CCCNC(=N)N)C(=O)N[C@@H](CCC(=O)O)C(=O)N[C@@H](CCC(N)=O)C(=O)N[C@@H](C)C(=O)N[C@@H](CCC(=O)O)C(=O)N[C@@H](CCCNC(=N)N)C(=O)N[C@@H](Cc1ccc(O)cc1)C(=O)NCC(=O)N[C@@H](CC(N)=O)C(=O)N[C@@H](CCCNC(=N)N)C(=O)N[C@@H](Cc1ccccc1)C(=O)N[C@@H](Cc1ccc(O)cc1)C(=O)N[C@@H](CCCNC(=N)N)C(=O)N[C@@H](CCCNC(=N)N)C(N)=O [Guavanin 11] (H-RQLMELIEQAERYGNRFYRR-NH2),> 200,> 200,
CC[C@H](C)[C@H](NC(=O)CNC(=O)[C@H](CCCNC(=N)N)NC(=O)[C@H](CC(N)=O)NC(=O)[C@H](Cc1ccccc1)NC(=O)[C@H](CO)NC(=O)[C@H](CCCNC(=N)N)NC(=O)[C@H](CO)NC(=O)[C@H](C)NC(=O)[C@H](CCC(N)=O)NC(=O)[C@H](CCCCN)NC(=O)[C@H](Cc1ccc(O)cc1)NC(=O)[C@H](CC(C)C)NC(=O)[C@H](CCC(=O)O)NC(=O)[C@H](CCSC)NC(=O)[C@@H](NC(=O)[C@H](CO)NC(=O)[C@@H](N)CCCNC(=N)N)[C@@H](C)CC)C(=O)N[C@@H](CCCNC(=N)N)C(=O)N[C@@H](CCCNC(=N)N)C(N)=O [Guavanin 6] (H-RSIMELYKQASRSFNRGIRR-NH2),100,> 200,
CSCC[C@H](NC(=O)[C@H](Cc1ccc(O)cc1)NC(=O)[C@H](C)NC(=O)[C@@H](N)CCCNC(=N)N)C(=O)N[C@@H](CCC(=O)O)C(=O)N[C@@H](C)C(=O)N[C@@H](CC(C)C)C(=O)N[C@@H](CCCNC(=N)N)C(=O)N[C@@H](CCC(N)=O)C(=O)N[C@@H](C)C(=O)N[C@@H](CCC(=O)O)C(=O)N[C@@H](CCCNC(=N)N)C(=O)N[C@@H](CC(C)C)C(=O)NCC(=O)N[C@@H](CC(N)=O)C(=O)N[C@@H](CCCNC(=N)N)C(=O)N[C@H](C(=O)N[C@@H](C)C(=O)N[C@@H](CCCNC(=N)N)C(=O)N[C@@H](CCCNC(=N)N)C(N)=O)[C@@H](C)O [Guavanin 9] (H-RAYMEALRQAERLGNRTARR-NH2),> 200,> 200,
CSCC[C@H](NC(=O)[C@H](CCCNC(=N)N)NC(=O)[C@H](CO)NC(=O)[C@@H](N)CO)C(=O)N[C@@H](CCC(=O)O)C(=O)N[C@@H](CS)C(=O)N[C@@H](Cc1ccc(O)cc1)C(=O)N[C@@H](CCC(=O)O)C(=O)N[C@@H](CCC(N)=O)C(=O)N[C@@H](C)C(=O)N[C@@H](CCC(=O)O)C(=O)N[C@@H](CCCNC(=N)N)C(=O)N[C@@H](Cc1ccc(O)cc1)C(=O)NCC(=O)N[C@@H](Cc1ccc(O)cc1)C(=O)NCC(=O)NCC(=O)N[C@@H](Cc1ccc(O)cc1)C(=O)NCC(=O)NCC(N)=O [Fragment 1 (α-helix)] (H-SSRMECYEQAERYGYGGYGG-NH2),> 200,> 200,
CC[C@H](C)[C@H](NC(=O)[C@H](C)NC(=O)[C@H](CCC(=O)O)NC(=O)[C@H](CCC(=O)O)NC(=O)[C@H](Cc1ccc(O)cc1)NC(=O)[C@H](CCC(N)=O)NC(=O)[C@H](CCCNC(=N)N)NC(=O)[C@H](CCSC)NC(=O)[C@H](Cc1ccc(O)cc1)NC(=O)[C@H](CCCCN)NC(=O)[C@@H](N)CCCNC(=N)N)C(=O)N[C@@H](CCCNC(=N)N)C(=O)N[C@@H](CC(=O)O)C(=O)NCC(=O)N[C@@H](CC(N)=O)C(=O)N[C@@H](CCCNC(=N)N)C(=O)N[C@@H](CO)C(=O)N[C@H](C(=O)N[C@@H](CCCNC(=N)N)C(=O)N[C@@H](CCCNC(=N)N)C(N)=O)[C@@H](C)CC [Guavanin 3] (H-RKYMRQYEEAIRDGNRSIRR-NH2),> 200,> 200,
